Key:
K562 = assay: MTT reduction proliferation assay, K562; format: cell-based, human; settings: K562 proerythroblastic leukemia, 24 hours
Experimental: The effect of P18 and P24 on the proliferation of several cell lines was determined by the MTT reduction assay (Mosmann, T. (1983) J. Immunol. Methods 65, 55-63). Briefly, cells were seeded at a concentration of 3×10^4/well in flat-bottomed 96-well plates and grown in complete medium in the presence of various concentrations (ranging between 20 and 0.4 μM) of purified dinucleotides. After 24 hours, 10 μl of a 5 mg/ml solution of MTT were added to each well and the plates incubated for a further 2 hours. The supernatant was then removed from each well and the blue crystals produced by the reduction of the dye were dissolved in DMSO (200 μl/well). The optical absorbance at 570 nm was determined with a BioRad microplate reader.
In these experiments, cells were seeded onto 96 well plates (3×10^4 cells per well) and incubated in the presence of increasing concentrations of P18 or P24. After 24 hours, the percentage of viable cells was evaluated by spectrophotometric measurement of the concentration of reduced MTT (see Materials and Methods). The means of at least three separate experiments are shown (s.d.≦20% of the mean value). […]

[1] = system: A. polypoides ADP-ribosyl cyclase; assay: Hydrolysis by purified Axinella polypoides ADP-ribosyl cyclase; settings: purified A. polypoides cyclase; P18 to cADPR and adenine
Experimental: ADP-ribosyl cyclases from lower and higher Metazoa were incubated in the presence of 0.1 mM cADPR and 1 mM adenine at pH 7.4 in 10 mM Tris-HCl (A, B and C) or in PBS-glucose (D) at 22° C. (A and B) or at 37° C. (C and D) for 4 hours. Aliquots of the various incubations were deproteinised with TCA (trichloroacetic acid) and subjected to HPLC (analytical phosphate). Chromatograms representative of each incubation are shown. A. A. polypoides; B. A. californica; C. Human CD38 (recombinant); D. Human HeLa cells transfected with sense and antisense human CD38 (dashed chromatogram).
In table 1, the absolute values of the peak-forming and -hydrolysing activities are compared with the cADPR-forming and -hydrolysing activities for each enzyme. The activities are expressed as nmol/min/mg.

Acid hydrolysis = format: physicochemical; settings: yielding adenine and ADPR
[2] = molecular target: T1, A. californica ADP-ribosyl cyclase (Aplysia californica, UniProt P29241); assay: Hydrolysis by Aplysia californica ADP-ribosyl cyclase; format: in vitro ADME; settings: P18 to adenine and ADPR
T1 construct: The cyclase purified from the mollusc Aplysia californica was purchased from Sigma; purchased Sigma; host or cells: purified from the mollusc
T1 sequence (P29241 25-282): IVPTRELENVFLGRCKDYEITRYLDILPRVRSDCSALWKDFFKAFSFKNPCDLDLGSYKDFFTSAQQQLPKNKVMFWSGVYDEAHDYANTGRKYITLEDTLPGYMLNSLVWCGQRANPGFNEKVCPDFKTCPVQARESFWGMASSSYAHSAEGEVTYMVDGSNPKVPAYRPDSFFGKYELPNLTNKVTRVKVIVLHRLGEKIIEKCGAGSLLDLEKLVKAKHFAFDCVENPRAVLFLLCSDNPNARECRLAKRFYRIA
Experimental: (A and B) or at 37° C. (C and D) for 4 hours. […] Chromatograms representative of each incubation are shown. A. A. polypoides; B. A. californica; C.
The activities are expressed as nmol/min/mg.

[3] = molecular target: NAD-glycohydrolase (NAD-ase, from Neurospora) (Neurospora crassa, UniProt Q7S936); assay: Resistance to NAD-glycohydrolase catalysed hydrolysis
Experimental: The HPLC fractions were lyophilised, resuspended in 200 μl water and the pH eas adjusted to 7.5 with 5N NaOH. Then, in order to remove all traces of NAD^+ and cADPR (which might interfere with the enzymatic assay), NAD-glycohydrolase (NAD-ase, from Neurospora, Sigma) (0.013 IU), recombinant CD38 (0.1 μg, provided by Prof. H. C. Lee, Minneapolis, Minn.) and 2 mM MgCl2 were added to each fraction. […] All fractions were incubated at 37° C. for 18 hours, and the enzymes were removed by filtration with Immobilon-P membranes (Millipore, Bedford, Mass.). The samples were then subdivided into two aliquots and the P18 determination reactions were performed in 96 well plates, at room temperature. 50 μl of a mixture containing 30 mM nicotinamide, 100 mM sodium phosphate, with or without 0.1 μg/μl of ADP-ribosyl cyclase purified from A. polypoides, were added to 100 μl of each sample.

CD38^− HeLa cells = assay: Intracellular calcium assay (FURA 2-AM), CD38- HeLa; format: cell-based, human; settings: 10 μM for 18 hours; for tapsigargine-induced release of calcium from ER stores [Ca^2+]i: 1 μM tapsigargine
Experimental: Adherent CD38^+ and CD38^− human HeLa cells on 20 mm-diameter coverslips were incubated in complete medium in the presence of […] P18 or P24 for […]. The cells were then washed, incubated with 6 μM Fura 2-acetoxymethyl ester (FURA 2-AM) in standard saline (135 mM NaCl, 5.4 mM KCl, 1.8 mM CaCl2, 1 mM MgCl2, 5 mM Hepes, 10 mM glucose, pH 7.4) for 45 minutes at 37° C. and then washed several times with saline. Calcium measurements were performed in a 200-μl chamber mounted on an inverted microscope, as described in detail in Zocchi E., et al. (1998) J. Biol. Chem. 273, 8017-8024. After determination of basal [Ca^2+]i levels, 1 μM tapsigargine was added to induce the release of calcium from tapsigargine-sensitive stores ([…]). The parameter values needed for calibration were obtained at the end of the experimental measurements, as described in Zocchi E., et al. (1998) J. Biol. Chem. 273, 8017-8024.
Basal cytosolic calcium and tapsigargine-induced release of calcium from […] (ER) stores (in bold in Table 4) were measured in CD38^+ and CD38^− HeLa cells loaded with FURA 2-AM and incubated in the absence (control) or in the presence of P18 or P24 at a concentration of 10 μM for 18 hours. The results obtained, expressed as [Ca^2+]I nanomolarity, are summarised in Table 4, showing mean results from 8 separate experiments (s.d.≦15% of the mean value).

Sequence of NAD-glycohydrolase (NAD-ase, from Neurospora) (Q7S936 20-243): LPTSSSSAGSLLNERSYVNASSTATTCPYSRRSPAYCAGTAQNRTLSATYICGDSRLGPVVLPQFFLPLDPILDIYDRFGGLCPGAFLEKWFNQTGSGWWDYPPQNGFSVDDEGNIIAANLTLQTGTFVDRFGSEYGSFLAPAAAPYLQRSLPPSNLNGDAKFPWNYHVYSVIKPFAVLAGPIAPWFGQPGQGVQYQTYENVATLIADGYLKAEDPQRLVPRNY

Row | SMILES | IC50 (K562) [µM] | hydrolysis activity [1] | sensitivity to acid hydrolysis (Acid hydrolysis) | hydrolysis activity [2] | resistance to NAD-ase catalysed hydrolysis [3] | ER stores-calcium, % of the control (CD38^− HeLa cells) [%] | basal [Ca^2+]i, % of the control (CD38^− HeLa cells) [%] | basal cytosolic free calcium [Ca^2+]i (CD38^− HeLa cells) [nM] | tapsigargine-induced release of calcium from ER stores [Ca^2+]i (CD38^− HeLa cells) [nM]
1 | Nc1ncnc2c1ncn2[C@@H]1O[C@H](COP(=O)(O)OP(=O)(O)OC[C@H]2O[C@@H](n3cnc4ncnc-4c3N)[C@H](O)[C@@H]2O)[C@@H](O)[C@H]1O [P18] | 44 | 10.5^2 nmol/min/mg | sensitive to acid hydrolysis | 3.5^1 nmol/min/mg | resistance | 78 | 52 | 12 | 366
2 | Nc1ncn([C@@H]2O[C@H](COP(=O)(O)OP(=O)(O)OC[C@H]3O[C@@H](n4cnc5c(N)ncnc54)[C@H](O)[C@@H]3O)[C@@H](O)[C@H]2O)c2ncnc1-2 [P24] | 5.8 |  | sensitive to acid hydrolysis |  |  | 60 | 191 | 44 | 290
